# Earlier results, collected in the CATMoS acute toxicity set (Mansouri et al. 2021).
# Where “and” joins values, the source holds several entries; their conditions need not be identical. Identical values can stand only once.
# Assay: rat acute oral toxicity
# Conditions: in vivo
row,Structure (SMILES),LD50
1,COP(=O)(OC)OC(=C(Cl)Cl)c1ccc(Cl)cc1Cl,109 mg/kg
2,O=C(CF)Nc1ccccn1,8 mg/kg
3,CCCCCCOC(=O)c1ccccc1,12300 mg/kg
4,Cc1ccccc1OCC(COC(O)C(Cl)(Cl)Cl)OC(O)C(Cl)(Cl)Cl (configuration not stated),880 mg/kg
5,CCCC(C)OC(N)=O (configuration not stated),421 mg/kg
6,CC(=O)Nc1ccc(N=NN(C)C)cc1,510 mg/kg
7,CN(CCCO)CCC(c1ccccc1)c1ccccc1,1400 mg/kg
8,CN1[C@@H]2CC[C@H]1C[C@@H](OC(c1ccccc1)c1ccc(Cl)cc1)C2 (some centres not stated),364 mg/kg
9,CC(C)(C)c1ccc2cc(C(C)(C)C)c(S(=O)(=O)O)cc2c1,4240 mg/kg
10,O=CC=CC1CO1 (configuration not stated),62 mg/kg
11,ClC1=C(Cl)C2(Cl)C3C(Cl)C(Cl)CC3C1(Cl)C2(Cl)Cl (configuration not stated),283 mg/kg
12,CCn1c(=O)c2ccccc2n(-c2cccc(C(F)(F)F)c2)c1=O,1500 mg/kg
13,O=C(O)[C@H]1/C(=C/CO)O[C@@H]2CC(=O)N21,7940 mg/kg
14,Cc1cccc2sc(N)nc12,500 mg/kg
15,CCCCCCCl,7000 mg/kg
16,Nc1cc(Cl)ccc1Cl,1600 mg/kg
17,COc1ccc2c(c1)OC(C)(C)C(c1ccccc1)=C2c1ccc(OCCO)cc1,500 mg/kg
18,COc1cc2nc(N3CCN(C(=O)OCC4CC4)CC3)nc(N)c2cc1OC,1150 mg/kg
19,CN(C)c1ccc(N=Nc2cccc(Br)c2)cc1,13000 mg/kg
20,CC(O)C(c1ccccc1)N1CCN(CCOc2ccccc2)CC1 (configuration not stated),250 mg/kg
21,Cc1ccc(N=CN(C)Sc2ccc(Cl)cc2)c(C)c1,320 mg/kg
22,Nc1nc(N)nc(NC2CC2)n1,3390 mg/kg
23,CC(=O)Cl,910 mg/kg
24,NC(=O)N1c2ccccc2C=Cc2ccccc21,1960 mg/kg

row,Structure (SMILES),LD50
1,CCOP(=O)(OCC)Oc1nc(Cl)c(Cl)cc1Cl,135 mg/kg
2,CC(=O)OCC=Cc1ccccc1,3300 mg/kg
3,CCO[Si](CC)(OCC)OCC,14000 mg/kg
4,Nn1cnnc1,4800 mg/kg and 13600 mg/kg
5,O=C(NP(=O)(N1CC1)N1CC1)c1cc(I)ccc1I,500 mg/kg
6,CC(C)(C)c1cc(Br)c2nc(C(F)(F)F)[nH]c2c1,161 mg/kg
7,CSc1ccccc1,891 mg/kg
8,CCCCCCCCCCCCOCCO,6550 mg/kg
9,S=c1[nH]n(-c2ccccc2)c(=S)s1,763 mg/kg
10,OC1(c2ccc(Cl)cc2)N=CN[n+]2ccc3ccccc3c21 (configuration not stated),1300 mg/kg
11,CCOCCOCCOC(C)=O,11000 mg/kg
12,O=C(O)CCCCCC(=O)O,7000 mg/kg
13,C=CCC1(C(C)CCC)C(=O)N=C(O)NC1=O (configuration not stated),125 mg/kg
14,C=CC(O)CCCCC (configuration not stated),340 mg/kg
15,COP(=O)(OC)OC(C)=CC(=O)OCc1ccccc1,56 mg/kg
16,CCCCC(CC)(COC(N)=O)COC(N)=O,662 mg/kg
17,CCCCCCCCCCCCCCCC[N+](C)(C)CC,500 mg/kg
18,c1ccc(C2CC(N3CCCC3)CC(c3ccccc3)C2c2ccccn2)cc1 (configuration not stated),479 mg/kg
19,O=C(CCCN1CCC(O)CC1)c1ccc(F)cc1,2400 mg/kg
20,CCN(CC)CCOC1(c2ccc(Cl)cc2)CCCCC1,500 mg/kg
21,CC(C)NNC(=O)COc1ccc(Cl)cc1,550 mg/kg
22,C#CCSP(=O)(OCC)OCC,18 mg/kg
23,COc1ccc2c(c1)OC(C)(C)C(c1ccccc1)=C2c1ccc(OCCN)cc1,1500 mg/kg
24,CCOC=C(C(=O)OCC)C(=O)OCC,925 mg/kg

row,Structure (SMILES),LD50
1,O=c1oc2ccccc2c(O)c1C(CC(O)c1ccc(-c2ccc(Br)cc2)cc1)c1ccccc1 (configuration not stated),0.49 mg/kg
2,CCOC(C1=NCC(C)(CC)CN1)c1cccc(F)c1 (configuration not stated),165 mg/kg
3,O=C(Nc1cc(F)ccc1F)NC1CC1,152 mg/kg
4,c1ccc(-c2nnn[nH]2)cc1,1900 mg/kg
5,CCOP(=S)(OCC)Oc1ccc(=O)n(-c2ccccc2)n1,424 mg/kg
6,CNC(=O)Oc1ccccc1C1OCC(C)(C)O1 (configuration not stated),110 mg/kg
7,CCC(Cl)(Cl)Cl,7460 mg/kg
8,O=C(Nc1c(Cl)c(Cl)c(Cl)c2nc(C(F)(F)F)[nH]c12)c1ccccc1,100 mg/kg
9,O=C(c1ccc(Cl)cc1)c1ccccc1-c1ncc[nH]1,600 mg/kg
10,NC1CC1,445 mg/kg
11,CC1(NC(N)=O)CCCCC1,1040 mg/kg
12,CC(C)OP(O)(=S)OC(C)C,20200 mg/kg
13,CCCCCCCCCCCCCCCCCC1=NC(C)CC(C)(C)N1 (configuration not stated),493 mg/kg
14,CC(C)=CC(=O)Nc1ccc(O)cc1,1950 mg/kg
15,Cc1nc2ccccc2n1Cc1ccc(Cl)cc1,2200 mg/kg
16,Cc1cc2c(C(C)C)c(O)c(O)c(C=O)c2c(O)c1-c1c(C)cc2c(C(C)C)c(O)c(O)c(C=O)c2c1O,2320 mg/kg
17,CC(CCCCCCCCCCCCCCCCC(=O)O)N(C)Cc1cc(C(C)N(C)CCCCCCCCCCCCCCCCCC(=O)O)cc(C(C)N(C)CCCCCCCCCCCCCCCCCC(=O)O)c1O (configuration not stated),11800 mg/kg
18,CC(C(=O)O)c1ccc2oc3ccccc3c(=O)c2c1 (configuration not stated),720 mg/kg
19,CCN(CC)CCOCc1cc(Br)ccc1OC,220 mg/kg
20,O=C(O)c1cc(O)c(O)c(OC(=O)c2cc(O)c(O)c(O)c2)c1,2260 mg/kg
21,C1=CC=CCC=C1,57 mg/kg
22,Nc1nncs1,253 mg/kg
23,C=CCC1=C(C)C(OC(=O)C2C(C=C(C)C)C2(C)C)CC1=O (configuration not stated),685 mg/kg
24,CCN(CC)c1cccc(S(=O)(=O)O)c1,7470 mg/kg

row,Structure (SMILES),LD50
1,S=C=Nc1ccc(N=C=S)cc1,21 mg/kg
2,CCCCC(C)(C)O[Si](OC(C)(C)CCCC)(OC(C)(C)CCCC)OC(C)(C)CCCC,60300 mg/kg
3,Cc1cc(Cl)cc2sc(-c3sc4cc(Cl)cc(C)c4c3OS(=O)(=O)O)c(OS(=O)(=O)O)c12,4360 mg/kg
4,C=CCOC(Cn1ccnc1)c1ccc(Cl)cc1Cl (configuration not stated),227 mg/kg
5,CN(C)c1ccc(C(=N)c2ccc(N(C)C)cc2)cc1,3000 mg/kg
6,O=C1CCC2CCCCC2O1 (configuration not stated),3900 mg/kg
7,C[N+]1(C)CCCCC1COC(=O)C(O)(c1ccccc1)c1ccccc1 (configuration not stated),5080 mg/kg
8,CN(C)C(=O)c1nc(CNC(=O)CN)n(-c2ccc(Cl)cc2C(=O)c2ccccc2Cl)n1,680 mg/kg
9,O=C(CCCN1CCC(O)(c2ccc(Cl)c(C(F)(F)F)c2)CC1)c1ccc(F)cc1,195 mg/kg
10,CCC1(CCC(C)C)C(=O)N=C(O)NC1=O (configuration not stated),275 mg/kg
11,FC(F)(F)c1nc2c(Br)c(Br)c(Cl)c(Br)c2[nH]1,8.32 mg/kg
12,Clc1cccc(N2CCNCC2)c1,142 mg/kg
13,CNC(=O)Oc1ccccc1C1OCCCO1,142 mg/kg
14,CN1CCN(CC/C=C2/c3ccccc3Sc3ccc(S(=O)(=O)N(C)C)cc32)CC1,410 mg/kg
15,COCC(=O)N(c1c(C)cccc1C)N1CCOC1=O,1860 mg/kg
16,COc1ccc(OC)c(C(O)CNC(=O)CN)c1 (configuration not stated),68.8 mg/kg
17,Cc1ccc(S(=O)(=O)NC(=O)NN2CC3CCCC3C2)cc1 (configuration not stated),3000 mg/kg
18,Nc1c(Cl)c(Cl)c2[nH]c(C(F)(F)F)nc2c1Cl,23 mg/kg
19,CCC1(C)CC(=O)NC1=O (configuration not stated),1820 mg/kg
20,CC(C)(O)C#CC(C)(C)O,9000 mg/kg
21,CC(Cl)C(=O)O (configuration not stated),800 mg/kg
22,Cc1cc(Cl)ccc1OCC(=O)O,1200 mg/kg and 800 mg/kg
23,CCN(CC)C(=O)Cl,2700 mg/kg
24,C[N+]1(CC[N+]2(C)CC3C4C=CC(CC4)C3C2)CCCC1 (configuration not stated),1810 mg/kg

row,Structure (SMILES),LD50
1,Nc1ccc(C(=O)O)c(O)c1,8000 mg/kg
2,c1ccc2cnccc2c1,360 mg/kg
3,CN1CCC(OC2c3ccccc3CCc3ccccc32)CC1,1500 mg/kg
4,N/C(CNc1ccc(Cl)cc1)=N/O,450 mg/kg
5,O=C1CN(/N=C/c2ccc([N+](=O)[O-])o2)C(O)=N1,1490 mg/kg
6,CCCCN(CCCC)CCOc1ccnc(N)n1,1000 mg/kg
7,CC(=NNCCC1CCCCC1)C(=O)O,520 mg/kg
8,Cc1ccc2c(-c3ccccc3)nc(=O)n(C(C)C)c2c1,759 mg/kg
9,Cc1ccc(C(=O)c2ccc(CC(=O)O)n2C)cc1,293 mg/kg
10,COc1c(OP(=S)(Oc2cnn(C)c(=O)c2OC)OC(C)C)cnn(C)c1=O,100 mg/kg
11,CCCNC(=O)OCC(O)C1COc2ccccc2O1 (configuration not stated),1500 mg/kg
12,CCC(C)c1cc(OC(=O)NC)ccc1C (configuration not stated),35 mg/kg
13,O=[N+]([O-])O[C@H]1CO[C@H]2[C@@H]1OC[C@H]2O[N+](=O)[O-],747 mg/kg
14,CC1=C(C(=O)OC(C)C)C(c2cccc([N+](=O)[O-])c2)C(C(=O)OC2CN(C(c3ccccc3)c3ccccc3)C2)=C(N)N1 (configuration not stated),1270 mg/kg
15,CC(=O)[C@H]1CC[C@H]2[C@@H]3CC[C@H]4C[C@H](O)CC[C@]4(C)[C@H]3C(=O)C[C@]12C,297 mg/kg
16,CCCCC[C@H](O)/C=C/[C@@H]1[C@@H](C/C=C\CCCC(=O)O)[C@@H](O)C[C@H]1O,1170 mg/kg
17,CCCCCCCCCCCCCCCCCC(=O)NCCC[N+](C)(C)CCO,8100 mg/kg
18,CC(C)(C)N(NC(=O)c1ccc(Cl)cc1)C(=O)c1ccccc1,2850 mg/kg
19,O=c1oc(=O)c2cc3c(=O)oc(=O)c3cc12,2250 mg/kg
20,CCCCCOC(=O)CCC,12200 mg/kg
21,O=C1CC=C(O)N=N1,3900 mg/kg
22,Oc1ccc(C(c2ccc(O)cc2)(C(F)(F)F)C(F)(F)F)cc1,3400 mg/kg
23,CC(C)N(CCC(C#N)(c1ccccc1)c1ccccn1)C(C)C (configuration not stated),596 mg/kg
24,C[N+](C)([O-])CCC=C1c2ccccc2CCc2ccccc21,1800 mg/kg

row,Structure (SMILES),LD50
1,CCCOC(=O)CC,10300 mg/kg
2,FC(F)(F)c1nc2c(Cl)c(Cl)c(Cl)c(Br)c2[nH]1,4.12 mg/kg
3,Fc1cccc(C(F)(F)F)n1,50 mg/kg
4,CCN(CC)C(=O)c1nnn(-c2ccccc2)c1C,500 mg/kg
5,Cc1cc(C)nc(Nc2ccccc2)n1,4150 mg/kg
6,CCCCN(CCCC)C(=O)CF,37 mg/kg
7,Nc1ccc(C(=O)O)cc1,8000 mg/kg
8,COc1ccc2c3c1O[C@H]1[C@H](N=[N+]=[N-])CC[C@H]4[C@@H](C2)N(C)CC[C@@]341,120 mg/kg
9,C=CS(C)(=O)=O,570 mg/kg
10,Nc1nc(N)c2cc(N(Cc3ccc(Cl)c(Cl)c3)N=O)ccc2n1,317 mg/kg
11,O=C(O)CCCOc1ccc(Cl)cc1Cl,700 mg/kg
12,Clc1ccc2c(c1)C(N1CCNCC1)=Nc1ccccc1O2,313 mg/kg
13,Oc1c(Cl)c(Cl)cc(Cl)c1Cc1c(Cl)cc(Cl)c(Cl)c1O,100 mg/kg
14,CCN(CC)CCCC(C)Nc1c2cc(Cl)ccc2nc2ccc(OC)cc12 (configuration not stated),4400 mg/kg
15,O=Cc1cccc(Oc2ccccc2)c1,1220 mg/kg
16,CC(C)(S)[C@@H](N)C(=O)O,6170 mg/kg
17,CC(=O)CC(=O)Nc1ccccc1,2450 mg/kg
18,N#Cc1ccc(F)cc1C#N,14 mg/kg
19,ClC1=C(Cl)C2(Cl)C(Cl)=C(Cl)C3C1C(Cl)CC32 (configuration not stated),10200 mg/kg
20,CC/C(=C(\c1ccccc1)c1ccc(OCCN(C)C)cc1)c1ccccc1,4100 mg/kg
21,CC(C)/N=c1/cc2n(-c3ccc(Cl)cc3)c3ccccc3nc-2cc1Nc1ccc(Cl)cc1,8400 mg/kg
22,CN(C)CCCN1C(=O)c2cc([N+](=O)[O-])ccc2Oc2ccccc21,1690 mg/kg
